Key:
[1] = molecular target: Kelch domain of human KEAP1 (321-624 aa) (Homo sapiens (Human), UniProt Q14145); assay: KEAP1 KELCH ThermoFluor binding assay; conditions: KEAP Kelch […], 1,8-ANS, pH 7.0, average of results obtained, read-out: Tf Kd;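 further: Ligand-induced melting temperature shift of E. coli-expressed KEAP1 Kelch protein, Kd estimated from concentration-response curves of ΔTm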
[2] = test system: Glo-Response ARE-luc2P HEK293 cell line; assay: ARE luciferase reporter cell-based assay; conditions: average of results obtained;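 further: luciferase signal tracks Nrf2 activation of the ARE once compounds disrupt KEAP1-Nrf2 binding, read with One-Glo reagent, DMSO serving as low control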

Sequence of Kelch domain of human KEAP1 (321-624 aa) (Q14145 321-624): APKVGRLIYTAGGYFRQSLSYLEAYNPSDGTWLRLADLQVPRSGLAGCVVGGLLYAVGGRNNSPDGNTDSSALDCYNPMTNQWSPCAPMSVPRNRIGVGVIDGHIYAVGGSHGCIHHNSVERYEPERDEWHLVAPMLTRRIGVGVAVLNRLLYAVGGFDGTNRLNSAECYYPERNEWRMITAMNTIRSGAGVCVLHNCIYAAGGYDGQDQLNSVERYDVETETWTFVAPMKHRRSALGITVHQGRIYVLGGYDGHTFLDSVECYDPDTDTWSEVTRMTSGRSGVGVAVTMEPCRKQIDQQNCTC

SMILES	Kd [1]	EC50 ([2]; Homo sapiens, HEK293, 24 h)	EC50 ([2]; 24 hours)
Cc1cnc2c(c1)S(=O)(=O)N(Cc1cc([C@H](c3ccn4c(C5CC5)nnc4c3C)C(C)(C)C(=O)O)ccc1C)CC1(CC1)O2 (single isomer, unassigned) [Example 393, (*R)-3-(3-Cyclopropyl-8-methyl-[1,2,4]triazolo[4,3-a]pyridin-7-yl)-2,2-dimethyl-3-(4-methyl-3-((8′-methyl-1′,1′-dioxidospiro[cyclopropane-1,4′-pyrido[2,3-b][1,4,5]oxathiazepin]-2′(3′H)-yl)methyl)phenyl)propanoic Acid]	2100 nM	4800 nM	
Cc1cnc2c(c1)S(=O)(=O)N(Cc1cc([C@@H](c3ccc4c(nnn4C4CC4)c3C)C(C)(C)C(=O)O)cnc1C)CC1(CC1)O2 (single isomer, unassigned) [Example 395, (*S)-3-(1-Cyclopropyl-4-methyl-1H-benzo[d][1,2,3]triazol-5-yl)-2,2-dimethyl-3-(6-methyl-5-((8′-methyl-1′,1′-dioxidospiro[cyclopropane-1,4′-pyrido[2,3-b][1,4,5]oxathiazepin]-2′(3′H)-yl)methyl)pyridin-3-yl)propanoic Acid]	< 1 nM	15.7 nM	
Cc1cnc2c(c1)S(=O)(=O)N(Cc1cc([C@H](c3ccc4c(nnn4C4CC4)c3C)C(C)(C)C(=O)O)cnc1C)CC1(CC1)O2 (single isomer, unassigned) [Example 396, (*R)-3-(1-Cyclopropyl-4-methyl-1H-benzo[d][1,2,3]triazol-5-yl)-2,2-dimethyl-3-(6-methyl-5-((8′-methyl-1′,1′-dioxidospiro[cyclopropane-1,4′-pyrido[2,3-b][1,4,5]oxathiazepin]-2′(3′H)-yl)methyl)pyridin-3-yl)propanoic Acid]	21800 nM	4900 nM	
Cc1ccc([C@H](CC(=O)O)c2ccc3c(nnn3C3CC3)c2C)cc1CN1C[C@@H]2CCCCN2c2ncccc2S1(=O)=O (single isomer, unassigned) [Example 398, (*S)-3-(1-Cyclopropyl-4-methyl-1H-benzo[d][1,2,3]triazol-5-yl)-3-(3-(((*S)-5,5-dioxido-7,7a,8,9,10,11-hexahydro-6H-dipyrido[2,1-d:2′,3′-f][1,2,5]thiadiazepin-6-yl)methyl)-4-methylphenyl)propanoic Acid]	< 1 nM	1.4 nM	
Cc1ccc(C(CC(=O)O)c2ccc3c(nnn3C3CC3)c2C)cc1CN1C[C@@H]2CCCCN2c2ncccc2S1(=O)=O (single isomer, unassigned) [Example 399, (*R)-3-(1-Cyclopropyl-4-methyl-1H-benzo[d][1,2,3]triazol-5-yl)-3-(3-(((*S)-5,5-dioxido-7,7a,8,9,10,11-hexahydro-6H-dipyrido[2,1-d:2′,3′-][1,2,5]thiadiazepin-6-yl)methyl)-4-methylphenyl)propanoic Acid]	< 1 nM	92.9 nM	
Cc1ccc([C@@H](CC(=O)O)c2ccc3c(nnn3CC3CC3)c2C)cc1CN1C[C@H]2CCCN2c2ncccc2S1(=O)=O (single isomer, unassigned) [Example 401, (*R)-3-(1-(Cyclopropylmethyl)-4-methyl-1H-benzo[d][1,2,3]triazol-5-yl)-3-(3-(((R)-5,5-dioxido-7a,8,9,10-tetrahydropyrido[2,3-f]pyrrolo[2,1-d][1,2,5]thiadiazepin-6(7H)-yl)methyl)-4-methylphenyl)propanoic acid]	< 1 nM	2.7 nM	
Cc1ccc([C@H](CC(=O)O)c2ccc3c(nnn3CC3CC3)c2C)cc1CN1C[C@H]2CCCN2c2ncccc2S1(=O)=O (single isomer, unassigned) [Example 402, (*S)-3-(1-(Cyclopropylmethyl)-4-methyl-1H-benzo[d][1,2,3]triazol-5-yl)-3-(3-(((R)-5,5-dioxido-7a,8,9,10-tetrahydropyrido[2,3-f]pyrrolo[2,1-d][1,2,5]thiadiazepin-6(7H)-yl)methyl)-4-methylphenyl)propanoic Acid]	< 1 nM	27.9 nM	
Cc1ccc([C@@H](CC(=O)O)c2cc(OC3CC3)c3c(c2)nnn3C)cc1CN1C[C@H]2CCCCN2c2ncccc2S1(=O)=O (single isomer, unassigned) [Example 404, (*R)-3-(7-Cyclopropoxy-1-methyl-1H-benzo[d][1,2,3]triazol-5-yl)-3-(3-(((*R)-5,5-dioxido-7,7a,8,9,10,11-hexahydro-6H-dipyrido[2,1-d:2′,3′-f][1,2,5]thiadiazepin-6-yl)methyl)-4-methylphenyl)propanoic Acid]	< 1 nM	19.6 nM	
Cc1ccc([C@H](CC(=O)O)c2cc(OC3CC3)c3c(c2)nnn3C)cc1CN1C[C@H]2CCCCN2c2ncccc2S1(=O)=O (single isomer, unassigned) [Example 405, (*S)-3-(7-Cyclopropoxy-1-methyl-1H-benzo[d][1,2,3]triazol-5-yl)-3-(3-(((*R)-5,5-dioxido-7,7a,8,9,10,11-hexahydro-6H-dipyrido[2,1-d:2′,3′-f][1,2,5]thiadiazepin-6-yl)methyl)-4-methylphenyl)propanoic Acid]	< 1 nM	7.4 nM	
Cc1cnc2c(c1)S(=O)(=O)N(Cc1cc([C@H](c3ccn4c(C(F)(F)F)nnc4c3C)C(C)(C)C(=O)O)ccc1C)CC1(CCOCC1)O2 (single isomer, unassigned) [Example 408, (*R)-2,2-dimethyl-3-(4-methyl-3-((8′-methyl-1′,1′-dioxido-2,3,5,6-tetrahydrospiro[pyran-4,4′-pyrido[2,3-b][1,4,5]oxathiazepin]-2′(3′H)-yl)methyl)phenyl)-3-(8-methyl-3-(trifluoromethyl)-[1,2,4]triazolo[4,3-a]pyridin-7-yl)propanoic Acid]	1280 nM		790 nM
Cc1ccc([C@@H](c2ccn3c(C(F)(F)F)nnc3c2C)C(C)(C)C(=O)O)cc1CN1CC2(CCOCC2)Oc2ncccc2S1(=O)=O (single isomer, unassigned) [Example 409, (*S)-3-(3-((1′,1′-dioxido-2,3,5,6-tetrahydrospiro[pyran-4,4′-pyrido[2,3-b][1,4,5]oxathiazepin]-2′(3′H)-yl)methyl)-4-methylphenyl)-2,2-dimethyl-3-(8-methyl-3-(trifluoromethyl)-[1,2,4]triazolo[4,3-a]pyridin-7-yl)propanoic Acid]	< 1 nM	2.64 nM	
Cc1ccc([C@H](c2ccn3c(C(F)(F)F)nnc3c2C)C(C)(C)C(=O)O)cc1CN1CC2(CCOCC2)Oc2ncccc2S1(=O)=O (single isomer, unassigned) [Example 410, (*R)-3-(3-((1′,1′-dioxido-2,3,5,6-tetrahydrospiro[pyran-4,4′-pyrido[2,3-b][1,4,5]oxathiazepin]-2′(3′H)-yl)methyl)-4-methylphenyl)-2,2-dimethyl-3-(8-methyl-3-(trifluoromethyl)-[1,2,4]triazolo[4,3-a]pyridin-7-yl)propanoic Acid]	2400 nM	1220 nM	
CCn1nnc2c(C)c([C@H](CC(=O)O)c3ccc(C)c(CN4CC5(CCOCC5)Oc5ccc(F)cc5S4(=O)=O)n3)ccc21 (single isomer, unassigned) [Example 418, (*S)-3-(1-ethyl-4-methyl-1H-benzo[d][1,2,3]triazol-5-yl)-3-(6-((8-fluoro-1,1-dioxido-2′,3′,5′,6′-tetrahydrospiro[benzo[b][1,4,5]oxathiazepine-4,4′-pyran]-2(3H)-yl)methyl)-5-methylpyridin-2-yl)propanoic Acid]	< 1 nM	0.96 nM	
CCn1nnc2c(C)c(C(CC(=O)O)c3ccc(C)c(CN4CC5(CCOCC5)Oc5ccc(F)cc5S4(=O)=O)n3)ccc21 (single isomer, unassigned) [Example 419, (*R)-3-(1-ethyl-4-methyl-1H-benzo[d][1,2,3]triazol-5-yl)-3-(6-((8-fluoro-1,1-dioxido-2′,3′,5′,6′-tetrahydrospiro[benzo[b][1,4,5]oxathiazepine-4,4′-pyran]-2(3H)-yl)methyl)-5-methylpyridin-2-yl)propanoic Acid]	< 1 nM	4.15 nM	
CCn1nnc2c(C)c([C@H](c3ccc(C)c(CN4CC5(CCOCC5)Oc5ncc(C)cc5S4(=O)=O)c3)C(C)(C)C(=O)O)ccc21 (single isomer, unassigned) [Example 420, (*S)-3-(1-ethyl-4-methyl-1H-benzo[d][1,2,3]triazol-5-yl)-2,2-dimethyl-3-(4-methyl-3-((8′-methyl-1′,1′-dioxido-2,3,5,6-tetrahydrospiro[pyran-4,4′-pyrido[2,3-b][1,4,5]oxathiazepin]-2′(3′H)-yl)methyl)phenyl)propanoic Acid]	268 nM	57.8 nM	
Cc1ccc([C@@H](c2ccn3c(C(F)(F)F)nnc3c2C)C(C)(C)C(=O)O)cc1CN1C[C@H]2CCCCN2c2ncc(C#N)cc2S1(=O)=O (single isomer, unassigned) [Example 422, (*S)-3-(3-(((*R)-3-cyano-5,5-dioxido-7,7a,8,9,10,11-hexahydro-6H-dipyrido[2,1-d:2′,3′-f][1,2,5]thiadiazepin-6-yl)methyl)-4-methylphenyl)-2,2-dimethyl-3-(8-methyl-3-(trifluoromethyl)-[1,2,4]triazolo[4,3-a]pyridin-7-yl)propanoic Acid]	< 1 nM	1.3 nM	
Cc1ccc([C@H](c2ccn3c(C(F)(F)F)nnc3c2C)C(C)(C)C(=O)O)cc1CN1C[C@H]2CCCCN2c2ncc(C#N)cc2S1(=O)=O (single isomer, unassigned) [Example 423, (*R)-3-(3-(((*R)-3-cyano-5,5-dioxido-7,7a,8,9,10,11-hexahydro-6H-dipyrido[2,1-d:2′,3′-f][1,2,5]thiadiazepin-6-yl)methyl)-4-methylphenyl)-2,2-dimethyl-3-(8-methyl-3-(trifluoromethyl)-[1,2,4]triazolo[4,3-a]pyridin-7-yl)propanoic Acid]	586 nM	409 nM	

Reference: patent US10947252B2, “Inhibitors of KEAP1-Nrf2 protein-protein interaction” (Janssen Pharmaceutica NV, priority 2018, dated 2021)
